Experimental data taken from US20220315895A1, “METHODS OF MAKING OLIGOPOTENT AND UNIPOTENT PRECURSORS” (Transfusion Health, LLC, priority 2019, published 2022).

Assays:
[1] = test system: CD15+ cells derived from cord blood CD34+ cells; experiment: Progenitor Differentiation and Maturation Cultures, CD15+ output (Example 42); assay type: cell-based, human
Excerpt: Progenitor Differentiation Cultures were initiated following 14, 28, 42 and 64 days of CD34 expansion culture. Differentiation Sequences were created by culturing cells in a series of Differentiation Medias, for six or seven days. Differentiation Medias were made with purified cytokines: SCF, G-CSF, GM-CSF, FLT3L, IL-3, IL-6, TPO (all from R&D Systems), prepared in either StemSpan SFEM I or RPMI+10% FBS, as indicated in Table 12A and Table 12B below. Approximately 5,000-10,000 CD34+ cells were seeded into the “Day 0 media” indicated in Table 13 in 12-well plates at the beginning of the Differentiation Culture. At day two or three, a portion of cells was seeded into the subsequent media in the Sequence. If media was to be changed to a different Differentiation Media at a given day, the cells were first placed into 15 mL conical tubes and centrifuged for 5 minutes at 300×g. All supernatant was removed prior to resuspension in new media and re-plating. At days 6 or 7, as indicated in Table 13 and Table 15, a portion of cells was analyzed. […]
A number of quantities were calculated to describe the output of Differentiation Culture and the combined effects of Expansion and Differentiation Culture. These quantities and their relationships are as described in Example 41 and depicted in FIG. 68.

[2] = test system: CD3+ and CD3+/CD8+ T cells; experiment: T-cell Maturation and CD8 Maturation Culture (Example 41); assay type: cell-based, human
Protocol: Following 14 days in Lymphoid Progenitor Differentiation Cultures, cells were placed into T- and NK-cell Maturation Cultures.
For T-cell Maturation Cultures, 24-well non-TC-treated plates were coated with StemSpan Lymphoid Differentiation Coating Material (STEMCELL Technologies) according to the manufacturer's instructions. Immediately prior to initiation of T-cell Maturation Culture, wells were washed with PBS. Cells from L Diff Cultures were plated at 50,000 cells/well in 500 μl of T Cell Progenitor Maturation Medium, comprising StemSpan SFEM II medium with StemSpan T Cell Progenitor Maturation Supplement.
Following 4 days of culture, NK- and T-cell Maturation Cultures' medias were replenished by adding an equal volume of the same culture media added on day 14. At days 21 and 25 of NK- or T-cell Maturation Cultures, half-media changes were performed by removing half of the total volume of media without disturbing cells and adding media freshly prepared as on day 14.
Following 7 and 14 days in NK- and T-cell Maturation Culture (21 and 28 days from initiation of Lymphoid Differentiation Culture, respectively), cells were stained with antibodies to CD56, CD3, CD161, CD94, and CD16 and analyzed via flow cytometry to quantify T and NK lineage phenotypes.
T-cell Maturation Cultures were continued for an additional 14 days, plated at 50,000-75,000 cells/well into 24-well non-TC-treated plates freshly coated with Lymphoid Differentiation Coating Material as above. Cultures were continued for this 14 day-period with half-media changes every 3-4 days.
Following a total of 42 days in Lymphoid Progenitor Differentiation and T-cell Maturation cultures, T cells from 14-day+Formula I-expanded L Diff Culture and 14-day DMSO-expanded L Diff Culture were placed into CD8 Maturation Culture as follows: A 24-well plate was coated with Lymphocyte Differentiation Coating Medium as above. […] Following 6 days in this maturation medium, cells were analyzed for mature T cell phenotypes by staining for CD3, CD8a, CD4, CD56 and performing flow cytometry on an Attune N×T flow cytometer. […]

[3] = CD8, Lymphoid Diff day 49, +Formula I-expanded CD34+ cells

CC(C)(C)C(=O)Nc1ccc2c(c1)C(O)c1ccccc1-2 (centres unmarked) [Compound 1.010]
fold increase of CD15+ cell output at days six or seven of Differentiation Culture ([1]; 64 days of CD34+ expansion in +Formula I conditions, condition TT): about 43,000 fold
CD15+ cells as percentage of total live cells ([1]; expanded in +Formula I conditions 14, 28 and 42 days, Medias A, B, C, H or T, by 6 to 7 days): > 47%
% Mature cells: CD4+/CD8α+ of Live/CD3+/CD56− [2, 3]: 0.5%
% Mature cells: CD4−/CD8α+ of Live/CD3+/CD56− [2, 3]: 95%
CD8a+ cells, of CD3+ cells ([2]; CD34+ cells first expanded for 14 days in +Formula I conditions): 95%
